“Also recorded” adds a separate entry of the source.
Legend:
[1] = target: T1, hCA I (Homo sapiens, UniProt P00915); assay: stopped-flow CO2 hydrase assay, hCA I; assay type: biochemical; settings: for Ki: recombinant hCA I, CO2 hydration, 15 min preincubation; for inhibition of hCA I (in words): result stated in words
T1 construct: made in house
Method: (§1) An Applied Photophysics stopped-flow instrument has been used for assaying the CA catalysed CO2 hydration activity. Phenol red (0.2 mM) has been used as indicator, working at the absorbance maximum of 557 nm, with 20 mM Hepes (pH 7.5, for α-CAs) as buffer, and 20 mM NaClO4 (for maintaining constant the ionic strength), following the initial rates of the CA-catalysed CO2 hydration reaction for a period of 10–100 s. The CO2 concentrations ranged from 1.7 to 17 mM for the determination of the kinetic parameters and inhibition constants. In particular, CO2 was bubbled in distilled deionised water for 30 min till saturation. A CO2 kit (Sigma, Milan, Italy) was used to measure the concentration in serially diluted solutions from the saturated one at the same temperature. For each inhibitor at least six traces of the initial 5–10% of the reaction have been used for determining the initial velocity. The uncatalysed rates were determined in the same manner and subtracted from the total observed rates. Stock solutions of inhibitor ([…]) were prepared in distilled–deionised water and dilutions up to 0.1 nM were done thereafter with the assay buffer. Inhibitor and enzyme solutions were preincubated together for 15 min at room temperature prior to assay, in order to allow for the formation of the E–I complex or for the eventual active site mediated hydrolysis of the inhibitor. The inhibition constants were obtained by non-linear least-squares methods using PRISM 3 and the Cheng–Prusoff equation and represent the average from at least three different determinations. All recombinant CA isoforms were obtained in-house as previously reported[24]^,[25].

[2] = target: T2, hCA II (Homo sapiens, UniProt P00918); assay: stopped-flow CO2 hydrase assay, hCA II; assay type: biochemical; settings: for inhibition of hCA II (in words): result stated in words; for Ki: recombinant hCA II, CO2 hydration, 15 min preincubation
T2 construct: made in house
Method: as §1

[3] = target: T3, hCA IX (Homo sapiens, UniProt Q16790); assay: stopped-flow CO2 hydrase assay, hCA IX; assay type: biochemical; settings: for inhibition of hCA IX (in words): result stated in words
T3 construct: made in house
Method: as §1

[4] = target: T4, hCA XII (Homo sapiens, UniProt O43570); assay: stopped-flow CO2 hydrase assay, hCA XII; assay type: biochemical; settings: result stated in words
T4 construct: made in house
T4 sequence (O43570 25-354): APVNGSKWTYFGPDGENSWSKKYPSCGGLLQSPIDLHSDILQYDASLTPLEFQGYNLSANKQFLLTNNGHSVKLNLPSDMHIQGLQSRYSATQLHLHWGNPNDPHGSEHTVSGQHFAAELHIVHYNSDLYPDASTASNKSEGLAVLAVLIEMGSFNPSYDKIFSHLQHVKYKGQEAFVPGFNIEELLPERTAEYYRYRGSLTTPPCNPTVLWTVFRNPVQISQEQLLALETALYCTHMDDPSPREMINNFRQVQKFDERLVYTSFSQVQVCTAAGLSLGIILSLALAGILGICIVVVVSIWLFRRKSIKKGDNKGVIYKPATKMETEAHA
Method: as §1

T1 sequence (P00915 whole entry): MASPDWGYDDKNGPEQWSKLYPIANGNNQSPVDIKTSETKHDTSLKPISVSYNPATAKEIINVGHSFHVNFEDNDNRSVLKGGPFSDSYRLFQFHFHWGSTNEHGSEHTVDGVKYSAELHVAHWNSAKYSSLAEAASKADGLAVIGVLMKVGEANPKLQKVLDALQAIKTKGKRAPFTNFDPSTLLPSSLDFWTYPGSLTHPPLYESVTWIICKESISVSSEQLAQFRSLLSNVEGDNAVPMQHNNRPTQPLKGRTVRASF

| Structure (SMILES) | Ki [1] [nM] | melting point | inhibition of hCA I (in words) [1] | inhibition of hCA II (in words) [2] | inhibition of hCA IX (in words) [3] | inhibition of hCA XII (in words) [4] | Ki [2] [nM] | Ki ([3]; recombinant hCA IX, CO2 hydration, 15 min preincubation) [nM] |
| --- | --- | --- | --- | --- | --- | --- | --- | --- |
| CC(C)(Oc1ccc(C(=O)c2ccc(Cl)cc2)cc1)C(=O)NS(=O)(=O)c1ccc(Cl)cc1 [Compound 21, 2-[4–(4-Chlorobenzoyl)phenoxy]-N-[(4-chlorophenyl)sulfonyl]-2-methylpropanamide] | < 10000 | 204 to 205 °C (dec.) |  |  |  |  |  |  |
| CC(=O)Nc1ccc(S(=O)(=O)NC(=O)C(C)(C)Oc2ccc(C(=O)c3ccc(Cl)cc3)cc2)cc1 [Compound 23, N-{[4-(acetylamino)phenyl]sulfonyl}-2-[4–(4-chlorobenzoyl)phenoxy]-2-methylpropanamide] |  | 226 to 228 °C |  |  |  |  |  |  |
| O=C(COc1ccc(C(=O)c2ccccc2)cc1)NS(=O)(=O)c1ccccc1 [Compound 26, 2-(4-Benzoylphenoxy)-N-(phenylsulphonyl)acetamide] |  | 61 to 62 °C | did not induce a sensible inhibition | did not induce a sensible inhibition | did not induce a sensible inhibition | did not induce a sensible inhibition |  |  |
| CC(C)(Oc1ccc(CCNC(=O)c2ccc(Cl)cc2)cc1)C(=O)NS(=O)(=O)c1ccccc1 [Compound 17] |  |  | moderate inhibition | moderate inhibition | moderate inhibition |  |  |  |
| COc1ccc(S(=O)(=O)NC(=O)C(C)(C)Oc2ccc(C(=O)c3ccc(Cl)cc3)cc2)cc1 [Compound 20, 2-[4-(4-Chlorobenzoyl)phenoxy]-N-[(4-methoxyphenyl)sulfonyl]-2-methylpropanamide] |  | 188 to 189 °C |  |  |  |  |  |  |
| CC(C)(Oc1ccc(C(=O)c2ccc(Cl)cc2)cc1)C(=O)NS(=O)(=O)c1ccccc1 [Compound 18] | < 10000 |  | moderate inhibition; also recorded: submicromolar | moderate inhibition | moderate inhibition; also recorded: submicromolar |  | 1300 | 440 |
| CC(C)(Oc1ccc(C(=O)c2ccc(Cl)cc2)cc1)C(=O)NS(=O)(=O)c1ccc(NC(=O)c2ccccc2)cc1 [Compound 24, N-{4-[({2-[4–(4-chlorobenzoyl)phenoxy]-2-methylpropanoyl}amino)sulfonyl]phenyl} benzamide] | < 10000 | 232 to 234 °C | marked effect | marked effect |  |  | 77 |  |
| CC(C)(Oc1ccc(Cl)cc1)C(=O)NS(=O)(=O)c1ccccc1 [Compound 15] |  |  | completely inactive | completely inactive | completely inactive | completely inactive |  |  |
| CCCC(Oc1ccc(C(=O)c2ccccc2)cc1)C(=O)NS(=O)(=O)c1ccccc1 (stereo not shown) [Compound 27, 2-(4-Benzoylphenoxy)-N-(phenylsulphonyl)pentanamide] |  |  | did not induce a sensible inhibition | did not induce a sensible inhibition | did not induce a sensible inhibition | did not induce a sensible inhibition |  |  |
| Cc1ccc(C)c(OCCCC(C)(C)C(=O)NS(=O)(=O)c2ccccc2)c1 [Compound 16] |  |  | completely inactive | completely inactive | completely inactive | completely inactive |  |  |
| CC(C)(Oc1ccc(C(=O)c2ccc(Cl)cc2)cc1)C(=O)NS(=O)(=O)c1ccc([N+](=O)[O-])cc1 [Compound 22, 2-[4–(4-Chlorobenzoyl)phenoxy]-2-methyl-N-[(4-nitrophenyl)sulfonyl]propanamide] |  | 196 to 198 °C |  |  |  |  | 16 |  |

From PMC6522927, “Fibrate-based N-acylsulphonamides targeting carbonic anhydrases: synthesis, biochemical evaluation, and docking studies” (Journal of Enzyme Inhibition and Medicinal Chemistry, 2019)
